The values that follow come from patent US9637485B2, “6,7-dihydrobenzo[a]quinolizin-2-one derivatives for the treatment and prophylaxis of hepatitis B virus infection” (Hoffmann-La Roche Inc., priority 2014, dated 2017).

The subject of one assay is HBV DNA. Put plainly: HBV DNA assay (real-time qPCR/TaqMan of extracellular HBV DNA, HepG2.2.15 cells). It is filed as cell-based. Particulars: Hepatitis B virus, 144 h, supernatant six days after initial administration, qPCR, read-out: IC50 (Anti HBV DNA production activity). The protocol: (§1) HepG2.2.15 cells (Acs et al. Proc Natl Acad Sci USA, 84, (1987), 4641-4), a constitutively HBV-expressing cell line were cultured in DMEM+Glutamax-I medium (Invitrogen, Carlsbad, Calif., USA, Catalog number: 11320082), supplemented with 10% fetal bovine serum (Invitrogen, Catalog number: 10099141) and G418 (Invitrogen, Catalog number: 10131027) at a final concentration of 200 mg/L and maintained in 5% CO2 at 37° C.
The assay employs real-time qPCR (TaqMan) to directly measure extracellular HBV DNA copy number. HepG2.2.15 cells were plated in 96-well microtiter plates. Only the interior wells were utilized to reduce “edge effects” observed during cell culture, the exterior wells were filled with complete medium to help minimize sample evaporation. On the following day, the HepG2.2.15 cells were washed and the medium was replaced with complete medium containing various concentrations of a test compound in triplicate. 3TC was used as the positive control, while media alone was added to cells as a negative control (virus control, VC). Three days later, the culture medium was replaced with fresh medium containing the appropriately diluted drug. […] Antiviral activity was calculated from the reduction in HBV DNA levels (IC50).

In another assay the test system is HBsAg. Put plainly: HBsAg assay (CLIA of secreted HBsAg in HepG2.2.15 culture supernatant). It is filed as cell-based, HBV. The protocol:
as §1
HepG2.2.15 cells were seeded in duplicate into white, 96-well plates at 1.5×10^4 cells/well. The cells were treated with a three-fold serial dilution series of the compounds in DMSO. The final DMSO concentration in all wells was 1% and DMSO was used as no drug control.
The HBsAg chemiluminescence immunoassay (CLIA) kit (Autobio Diagnostics Co., Zhengzhou, China, Catalog number: CL0310-2) was used to measure the levels of secreted HBV antigens semi-quantitatively. For the detection 50 μL/well culture supernatant was used and HBsAg was quantified using HBsAg chemiluminescence immunoassay (CLIA) kit (Autobio Diagnostics Co., Zhengzhou, China, Catalog number: CL0310-2), 50 μl of the supernatant was transferred to the CLIA assay plate and 50 μL of enzyme conjugate reagent was added into each well. The plates were sealed and gently agitated for 1 hour at room temperature. The supernatant-enzyme-mixture was discarded and wells were washed 6 times with 300 μL of PBS. The residual liquid was removed by plating the CLIA plate right side down on absorbent tissue paper. 25 μL of substrates A and B were added to each well. Luminance was measured using a luminometer (Mithras LB 940 Multimode Microplate Reader) after 10 minutes incubation. Dose-response curves were generated and the IC50 value was extrapolated by using the E-WorkBook Suite (ID Business Solutions Ltd., Guildford, UK). The IC50 was defined as the compound concentration (or conditioned media log dilution) at which HBsAg secretion was reduced by 50% compared to the no drug control.

Setting [1] is: read-out: IC50 (HBsAg secretion reduced by 50% compared to the no drug control), HepG2.2.15 cells, culture supernatant, HBsAg CLIA.
Where [2] appears, read: Hepatitis B virus, HepG2.2.15, read-out: IC50 (HBsAg secretion reduced by 50% compared to the no drug control), HepG2.2.15 cells, culture supernatant, HBsAg CLIA.

Where two headings read alike, the source gives them in different places. Bounds are passed on as bounds.

For orientation: IC50 means the concentration at which inhibition is half-maximal. Turning to `COCCCOc1cc2c(cc1OC)-c1cc(=O)c(C(=O)O)cn1[C@H](C(C)(C)CO)C2` (single isomer, unassigned) [Example 25, (+)-6-(2-Hydroxy-1,1-dimethyl-ethyl)-10-methoxy-9-(3-methoxypropoxy)-2-oxo-6,7-dihydrobenzo[a]quinolizine-3-carboxylic acid], the results for the IC50 in the assay with HBV DNA and with HBsAg (setting [1]) were below 32 nM and 2 nM, respectively. The matching figures for `COCCCOc1cc2c(cc1OC)-c1cc(=O)c(C(=O)O)cn1C(C(C)(C)COC)C2` (single isomer, unassigned) [Example 28, (+)-10-Methoxy-6-(2-methoxy-1,1-dimethyl-ethyl)-9-(3-methoxypropoxy)-2-oxo-6,7-dihydrobenzo[a]quinolizine-3-carboxylic acid]: 0.5 nM and 3 nM. As to `COCCCOc1cc2c(cc1Cl)-c1cc(=O)c(C(=O)O)cn1C(C(C)(C)COC)C2` (single isomer, unassigned) [Example 31, (+)-10-Chloro-6-(2-methoxy-1,1-dimethyl-ethyl)-9-(3-methoxypropoxy)-2-oxo-6,7-dihydrobenzo[a]quinolizine-3-carboxylic acid], the IC50 in the assay on HBsAg (setting [1]) worked out at 3 nM.

Turning to `COCC(C)(C)C1Cc2cc(OCCC3CCCN3C)c(OC)cc2-c2cc(=O)c(C(=O)O)cn21` (stereo not drawn) [Example 17, 10-Methoxy-6-(2-methoxy-1,1-dimethyl-ethyl)-9-[2-(1-methylpyrrolidin-2-yl)ethoxy]-2-oxo-6,7-dihydrobenzo[a]quinolizine-3-carboxylic acid], in the assay on HBsAg (setting [2]), the IC50 was 537 nM. Same read-out and setting: the figure for `COCC(C)(C)C1Cc2cc(OCC3CC3)c(OC)cc2-c2cc(=O)c(C(=O)O)cn21` (stereo not drawn) [Example 9, 9-(Cyclopropylmethoxy)-10-methoxy-6-(2-methoxy-1,1-dimethyl-ethyl)-2-oxo-6,7-dihydrobenzo[a]quinolizine-3-carboxylic acid] is 4 nM. Same read-out and setting: the figure for `COCC(C)(C)C1Cc2cc(OCCCN3CCCC3=O)c(OC)cc2-c2cc(=O)c(C(=O)O)cn21` (stereo not drawn) [Example 12, 10-Methoxy-6-(2-methoxy-1,1-dimethyl-ethyl)-2-oxo-9-[3-(2-oxopyrrolidin-1-yl)propoxy]-6,7-dihydrobenzo[a]quinolizine-3-carboxylic acid] is 190 nM; for `COCCOc1cc2c(cc1Cl)-c1cc(=O)c(C(=O)O)cn1C(CSC)C2` (stereo not drawn) [Example 33, 10-Chloro-9-(2-methoxyethoxy)-6-(methylsulfanylmethyl)-2-oxo-6,7-dihydrobenzo[a]quinolizine-3-carboxylic acid] it is 117 nM.
